Measured values taken from paper PMC6445168, “Design, synthesis and antimalarial activity of novel bis{N-[(pyrrolo[1,2-a]quinoxalin-4-yl)benzyl]-3-aminopropyl}amine derivatives” (Journal of Enzyme Inhibition and Medicinal Chemistry, 2017).
Read-outs that look alike come from different tables or passages of the source.

Columns and labels:
[1] = test system: L. donovani (MHOM/IN/00/DEVI) promastigotes; assay: In vitro antileishmanial activity on promastigotes, MTT assay; format: cell-based; settings: Leishmania donovani, 72 h incubation, mean ± SD of three independent experiments
Experimental: L. donovani (MHOM/IN/00/DEVI) used in this study was provided by the CNR Leishmania (Montpellier, France). The effects of the tested compounds on the growth of L. donovani (MHOM/IN/00/DEVI)promastigotes were assessed by MTT assay[41] .Briefly, promastigotes in log-phase in Schneider′s medium supplemented with 20% fetal calf serum (FCS), 2 mM L-glutamine and antibiotics (100 U/mL penicillin and 100 μg/mL streptomycin), were incubated at an average density of 10^6 parasites/mL in sterile 96-well plates with various concentrations of compounds dissolved in DMSO (final concentration less than 0.5% v/v), in duplicate. Appropriate controls treated by DMSO and pentamidine or amphotericin B (reference drugs purchased from Sigma-Aldrich) were added to each set of experiments. After a 72 h incubation period at 27 °C, parasite metabolic activity was determined. Each plate-well was then microscope-examined for detecting possible precipitate formation. 20 μL of MTT 3–(4,5-dimethylthiazol-2-yl)-2,5-diphenyltetrazolium bromide) solution (5 mg/mL) were added to each well followed by incubation for another 4 h. The enzyme reaction was then stopped by addition of 100 μL of 50% isopropanol – 10% sodium dodecyl sulfate[42] .Plates were shaken vigorously (300 rpm) for 10 minutes and the absorbance measured in a plate reader at 570 nm in a BIO-TEK ELx808 Absorbance Microplate Reader. […] IC50 were calculated by non-linear regression analysis processed on doseresponse curves, using TableCurve 2D V5.0 software. IC50 values represent the mean value calculated from three independent experiments.

HepG2 cell line = assay: Cytotoxicity evaluation, MTT assay; format: cell-based, human; settings: HepG2, 72 h incubation, mean ± SD of three independent experiments
Experimental: (§1) These assays were performed toward the human HepG2 cell line (HepG2 CC50). […] These cells express many of the hepatocyte-specific metabolic enzymes, thus enabling the cytotoxicity of tested product metabolites to be evaluated. […] Duplicate assays were performed for each sample. Each plate-well was then microscope-examined for detecting possible precipitate formation before the medium was aspirated from the wells. 100 μL of MTT solution (0.5 mg/mL in medium without FCS) were then added to each well. […] After this time, the MTT solution was removed and DMSO (100 μL) was added to dissolve the resulting blue formazan crystals. Plates were shaken vigorously (300 rpm) for 5 minutes. The absorbance was measured at 570 nm with 630 nm as reference wavelength spectrophotometer using a BIO-TEK ELx808 Absorbance Microplate Reader. DMSO was used as blank and doxorubicin (Sigma Aldrich) as positive control. Cell viability was calculated as percentage of control (cells incubated without compound). The 50% cytotoxic concentration was determined from the dose-response curve by using the TableCurve 2D V5.0 software (Systat Software, San Jose, CA).

[2] = test system: P. falciparum CQ-resistant strain W2; assay: In vitro antiplasmodial activity, SYBR Green I fluorescence-based method, W2 strain; format: cell-based, Plasmodium falciparum; settings: for IC50: Plasmodium falciparum, read-out: P. falciparum strains IC50 values, W2; for Selectivity Index HepG2/W2: ratio CC50 HepG2 / IC50 W2
Experimental: (§2) The in vitro antiplasmodial activities were tested over concentrations ranging from 39 nM to 40 μM against culture-adapted Plasmodium falciparum reference strains 3D7 and W2. […] The parasites were cultivated in RPMI medium (Sigma-Aldrich, Lyon, France) supplemented with 0.5% Albumax I (Life Technologies corporation, Paisley, United Kingdom), hypoxanthine (Sigma-Aldrich), gentamicin (Sigma-Aldrich), and human erythrocytes and were incubated at 37 °C in a candle jar, as described previously. The P. falciparum drug susceptibility test was carried out in 96-well flat bottom sterile plates under a final volume of 250 μL. After a 48 h incubation with the drugs, quantities of DNA in treated and control cultures of parasites in human erythrocytes were compared according to the SYBR Green I (Sigma-Aldrich) fluorescence-based method[38]^,[39]. Briefly, after incubation, plates were frozen at -20 °C until use. They were then left to thaw for 2 h at room temperature and 100 μL of the homogenized culture were transferred to 96-well flat bottom sterile black plates (Nunc Inc) already containing 100 μL of the SYBR Green I lysis buffer (2xSYBR Green, 20 mM Tris base pH 7.5, 5 mM EDTA, 0.008% w/v saponin, 0.08% w/v Triton X-100). […] Plates were incubated for 1 h at room temperature and then read on a fluorescence plate reader (Tecan, Austria) using excitation and emission wavelengths of 485 and 535 nm, respectively.

[3] = test system: P. falciparum CQ-sensitive strain 3D7; assay: In vitro antiplasmodial activity, SYBR Green I fluorescence-based method, 3D7 strain; format: cell-based, Plasmodium falciparum; settings: for IC50: Plasmodium falciparum, 3D7, 48 h, read-out: P. falciparum strains IC50 values, 3D7; for Selectivity Index HepG2/3D7: ratio CC50 HepG2 / IC50 3D7
Experimental: as §2

[4] = test system: Plasmodium telomeric quadruplex FPf1T; assay: FRET melting experiments, FPf1T; format: binding, Plasmodium falciparum; settings: compound at 5 μM, 200 nM oligonucleotide, K+ condition; result in words
Experimental: (§3) FRET melting experiments were performed with dual-labeled oligonucleotides mimicking the Plasmodium telomeric sequences FPf1T [FAM-^5′(GGGTTTA)3-GGG^3′-TAMRA] and FPf8T [FAM-^5′(GGGTTCA)3GGG^3′-TAMRA] and the human telomeric sequence F21T [FAM-(GGGTTA)3-GGG^3′- TAMRA][36]^,[43]. The oligonucleotides were prefolded in 10 mM lithium cacodylate buffer (pH 7.2), with 10 mM KCl and 90 mM LiCl (K^+ condition). […] The data obtained were normalized between 0 and 1, and the temperature required for half-denaturationof oligonucleotides corresponded to the emission value of 0.5 was calculated as ΔTm. Each experiment was performed in duplicate with 200 nM of labeled oligonucleotide and 0, 1, 2, or 5 μM of compound under K^+ condition. For each compound, two independent experiments were carried out. The data were plotted using OriginPro 9.1 software (OriginLab Corporation, Northampton, MA).

[5] = test system: Plasmodium telomeric quadruplex FPf8T; assay: FRET melting experiments, FPf8T; format: binding, Plasmodium falciparum; settings: compound at 5 μM, 200 nM oligonucleotide, K+ condition; result in words
Experimental: as §3

[6] = test system: human telomeric quadruplex F21T; assay: FRET melting experiments, F21T; format: binding; settings: compound at 5 μM, 200 nM oligonucleotide, K+ condition; result in words
Experimental: as §3

[7] = Cytotoxicity evaluation, MTT assay; format: cell-based, human; settings: human, HepG2 cells (hepatocarcinoma cell line, ATCC HB-8065); HepG2, 72 h incubation, mean ± SD of three independent experiments
Experimental: as §1

[8] = chloroquine-resistant strain W2, 48 h incubation
[9] = chloroquine-sensitive strain 3D7, 48 h incubation

SMILES	IC50 [1]	CC50 (HepG2 cell line)	IC50 [2, 8]	IC50 [3, 9]	Thermal stabilization (ΔTm) on FPf1T [4]	Thermal stabilization (ΔTm) on FPf8T [5]	Thermal stabilization (ΔTm) on F21T [6]	Selectivity Index HepG2/W2 [2]	Selectivity Index HepG2/3D7 [3]	CC50 at 72 h [7]	IC50 ([2]; W2, 48 h)	IC50 [3]
N=C(N)c1ccc(OCCCCCOc2ccc(C(=N)N)cc2)cc1 [Pentamidine, reference compound]	5.5 ± 0.8 µM	2.3 ± 0.5 µM	–	–	–	–	–	–	–	–	–	–
OC(c1cc(C(F)(F)F)nc2c(C(F)(F)F)cccc12)C1CCCCN1 (stereo not shown) [Mefloquine, reference compound]	–	–	0.032 ± 0.001 µM	0.08 ± 0.008 µM	very slight stabilization	very slight stabilization	very slight stabilization	–	–	–	–	–
COc1ccc2c(c1)nc(-c1ccc(CNCCCN3CCN(CCCNCc4ccc(-c5nc6cc(OC)ccc6n6cccc56)cc4)CC3)cc1)c1cccn12 [1e, Bis{N-[4–(7-methoxypyrrolo[1,2-a]quinoxalin-4-yl)benzyl]-3-aminopropyl}piperazine]	2.52 ± 0.1 µM	–	0.21 ± 0.03 µM	2.62 ± 0.25 µM	more active on the Plasmodium sequences with the higher ΔTm	more active on the Plasmodium sequences with the higher ΔTm	–	6.95	0.56	1.46 ± 0.6 µM	–	–
CCN(CC)CCCC(C)Nc1ccnc2cc(Cl)ccc12 (stereo not shown) [Chloroquine, reference compound]	–	–	–	–	very slight stabilization	very slight stabilization	very slight stabilization	–	–	–	0.2 ± 0.03 µM	0.08 ± 0.003 µM
COc1cccc2nc(-c3ccc(CNCCCN4CCN(CCCNCc5ccc(-c6nc7cccc(OC)c7n7cccc67)cc5)CC4)cc3)c3cccn3c12 [1i, Bis{N-[4–(9-methoxypyrrolo[1,2-a]quinoxalin-4-yl)benzyl]-3-aminopropyl}piperazine]	1.58 ± 0.1 µM	–	0.32 ± 0.04 µM	1.28 ± 0.1 µM	more active on the Plasmodium sequences with the higher ΔTm	more active on the Plasmodium sequences with the higher ΔTm	–	4.16	1.04	1.33 ± 0.3 µM	–	–
